Results published in patent US20180244611A1, “Modulators of the Cystic Fibrosis Transmembrane Conductance Regulator Protein and Methods of Use” (AbbVie S.à.r.l., priority 2017, published 2018).

Experiments:
F508delCFTR [1] = target: T1, F508delCFTR (Homo sapiens, UniProt P13569, DEL508-508); assay: Cell Surface Expression-Horse Radish Peroxidase (CSE-HRP) assay, test compound without co-corrector; format: cell-based; settings: for EC50: test compound without co-corrector; for Emax / Maximum % activity (without co-corrector): maximum at any tested concentration, without co-corrector; for Emax: normalized to on-plate positive control; for Maximum % activity (without co-corrector): normalized to positive control;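 for Maximum % activity (without co-corrector): percent of on-plate 2 µM positive control corrector response over DMSO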
T1 construct: expressed in transfected cells; host or cells: CFBE41o- human lung-derived epithelial cells (CFBE41o-F508delCFTR-HRP), doxycycline-inducible
T1 sequence (P13569 with tags, fused parts or gaps DEL508-508): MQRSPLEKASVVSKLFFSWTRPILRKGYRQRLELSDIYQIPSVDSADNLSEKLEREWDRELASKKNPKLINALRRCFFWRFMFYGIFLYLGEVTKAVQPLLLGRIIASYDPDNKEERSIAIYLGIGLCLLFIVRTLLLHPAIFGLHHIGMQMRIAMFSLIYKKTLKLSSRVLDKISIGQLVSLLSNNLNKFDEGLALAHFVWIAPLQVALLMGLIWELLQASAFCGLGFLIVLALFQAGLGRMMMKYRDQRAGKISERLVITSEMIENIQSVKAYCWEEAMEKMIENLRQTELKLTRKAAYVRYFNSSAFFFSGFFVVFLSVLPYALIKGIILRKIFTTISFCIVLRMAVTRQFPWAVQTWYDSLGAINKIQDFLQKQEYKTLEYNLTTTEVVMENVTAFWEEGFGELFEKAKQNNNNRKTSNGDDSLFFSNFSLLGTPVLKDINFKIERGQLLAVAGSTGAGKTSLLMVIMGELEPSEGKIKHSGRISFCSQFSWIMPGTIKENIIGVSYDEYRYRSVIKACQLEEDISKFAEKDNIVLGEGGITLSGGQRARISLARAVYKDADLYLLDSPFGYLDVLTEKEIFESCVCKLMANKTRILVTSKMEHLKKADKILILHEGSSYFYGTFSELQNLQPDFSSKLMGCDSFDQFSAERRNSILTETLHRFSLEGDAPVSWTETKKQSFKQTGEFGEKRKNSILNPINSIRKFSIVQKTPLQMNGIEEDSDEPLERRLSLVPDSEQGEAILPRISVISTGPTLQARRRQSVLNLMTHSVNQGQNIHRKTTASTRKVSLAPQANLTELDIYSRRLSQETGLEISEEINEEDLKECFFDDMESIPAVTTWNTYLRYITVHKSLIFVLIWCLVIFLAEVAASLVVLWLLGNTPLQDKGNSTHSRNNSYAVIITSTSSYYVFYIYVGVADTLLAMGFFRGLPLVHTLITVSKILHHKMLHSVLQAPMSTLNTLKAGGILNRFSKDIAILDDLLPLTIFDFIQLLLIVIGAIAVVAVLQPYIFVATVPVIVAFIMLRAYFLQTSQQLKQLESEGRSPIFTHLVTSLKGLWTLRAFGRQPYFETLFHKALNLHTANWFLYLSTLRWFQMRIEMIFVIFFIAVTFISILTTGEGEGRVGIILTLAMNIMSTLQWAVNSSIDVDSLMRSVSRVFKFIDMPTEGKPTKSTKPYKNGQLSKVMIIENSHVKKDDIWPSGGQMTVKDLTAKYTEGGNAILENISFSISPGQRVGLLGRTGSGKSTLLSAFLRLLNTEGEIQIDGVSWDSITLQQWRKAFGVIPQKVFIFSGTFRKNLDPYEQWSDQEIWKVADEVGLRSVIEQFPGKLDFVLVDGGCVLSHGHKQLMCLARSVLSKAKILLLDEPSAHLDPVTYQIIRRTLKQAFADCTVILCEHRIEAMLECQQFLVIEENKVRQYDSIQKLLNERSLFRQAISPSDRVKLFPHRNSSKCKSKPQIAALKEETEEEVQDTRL
Method in brief: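 Compound without co-corrector was tested at eight 3-fold concentrations, top 20 μM, for 18-24 h at 33° C on doxycycline-induced (0.5 μg/mL, 72 h) CFBE41o- F508delCFTR-HRP cells. After DPBS washes, luminol luminescence gave % activity relative to on-plate positive control minus DMSO; EC50 came from triplicate-plate sigmoidal fitting.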

F508delCFTR [2] = target: T1, F508delCFTR; assay: Cell Surface Expression-Horse Radish Peroxidase (CSE-HRP) assay, test compound with co-corrector; format: cell-based; settings: for Maximum % activity (with co-corrector): maximum at any tested concentration;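 for Maximum % activity (with co-corrector): percent of 2 µM positive control corrector over DMSO; co-corrector is that same compound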
Method in brief: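 Surface-expression read-out: luminol luminescence from an HRP tag in the fourth exofacial loop of F508delCFTR, in doxycycline-induced (0.5 μg/mL, 72 h) CFBE41o- cells. Compound plus 2 μM co-corrector added for 18-24 h at 33° C., 8-point 3-fold series up to 20 μM. EC50 from a sigmoidal fit with variable Hill slope, normalised to positive control, triplicate plates.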

[3] = CSE-HRP assay, test compound with 2 μM co-corrector
[4] = normalized to on-plate positive control, with 2 μM co-corrector
[5] = normalized to positive control, with 2 μM co-corrector

| Molecule | EC50 (F508delCFTR [1]; CSE-HRP assay) [µM] | Emax (F508delCFTR [1]) [%] | EC50 (F508delCFTR [2]; [3]) [µM] | Maximum % activity (with co-corrector) (F508delCFTR [2]; [4]) | Maximum % activity (without co-corrector) (F508delCFTR [1]) | EC50 (F508delCFTR [1]) [µM] | Maximum % activity (with co-corrector) (F508delCFTR [2]; [5]) | EC50 (F508delCFTR [2]; with 2 μM co-corrector) [µM] |
| --- | --- | --- | --- | --- | --- | --- | --- | --- |
| COc1ccc(-c2ccc(C)nc2)c2c1C(C(=O)NS(=O)(=O)c1cccc3ccccc13)CCC2 (stereo not drawn) [III-167] | 3 to 10 | < 50 | < 3 | ++ (≥150 and <350) | – | – | – | – |
| COc1ccc(-c2ccc(C)cc2)c2c1C(C(=O)NS(=O)(=O)c1cccc3ccccc13)CCC2 (stereo not drawn) [III-170] | < 3 | 50 to 150 | < 3 | +++ (≥350) | – | – | – | – |
| CCC1(C(=O)NS(=O)(=O)c2cccc(N3CCOCC3)c2C)CCc2c(Cl)cccc21 (stereo not drawn) [III-172] | 3 to 10 | < 50 | < 3 | ++ (≥150 and <350) | – | – | – | – |
| CCC1(C(=O)NS(=O)(=O)c2cccc(N(C)CCOC)c2C)CCc2c(Cl)cccc21 (stereo not drawn) [III-173] | 3 to 10 | 50 to 150 | 3 to 10 | +++ (≥350) | – | – | – | – |
| COc1ccc(N2CCCC2)c2c1CCCC2C(=O)NS(=O)(=O)c1cccc2ccccc12 (stereo not drawn) [III-174] | ≥ 10 | < 50 | ≥ 10 | + (<150) | – | – | – | – |
| COc1ccc2c(c1OC)CC2C(=O)NS(=O)(=O)c1ccccc1C (stereo not drawn) [III-175] | ≥ 10 | < 50 | ≥ 10 | + (<150) | – | – | – | – |
| COc1cccc2c1C(C(=O)NS(=O)(=O)c1cccc3ccccc13)CC2 (stereo not drawn) [III-182] | < 3 | 50 to 150 | < 3 | ++ (≥150 and <350) | – | – | – | – |
| COc1ccc(C(=O)O)c2c1C(C(=O)NS(=O)(=O)c1cccc3ccccc13)CC2 (stereo not drawn) [III-183] | ≥ 10 | < 50 | 3 to 10 | ++ (≥150 and <350) | – | – | – | – |
| COc1ccc(CO)c2c1C(C(=O)NS(=O)(=O)c1cccc3ccccc13)CC2 (stereo not drawn) [III-185] | 3 to 10 | < 50 | 3 to 10 | ++ (≥150 and <350) | – | – | – | – |
| CNC(=O)c1ccc(OC)c2c1CCC2C(=O)NS(=O)(=O)c1cccc2ccccc12 (stereo not drawn) [III-186] | ≥ 10 | < 50 | ≥ 10 | + (<150) | – | – | – | – |
| COc1ccc(C(=O)N(C)C)c2c1C(C(=O)NS(=O)(=O)c1cccc3ccccc13)CC2 (stereo not drawn) [III-187] | ≥ 10 | < 50 | ≥ 10 | + (<150) | – | – | – | – |
| COc1ccc(CN2CCCC2)c2c1C(C(=O)NS(=O)(=O)c1cccc3ccccc13)CC2 (stereo not drawn) [III-188] | ≥ 10 | < 50 | 3 to 10 | + (<150) | – | – | – | – |
| (1R)-4-cyclobutyl-7-methoxy-N-(1,2,3,4-tetrahydroquinoline-8-sulfonyl)-2,3-dihydro-1H-indene-1-carboxamide [Example I-131] | – | – | – | – | +++ (≥150) | < 3 | +++ (≥350) | < 3 |
| (1S)-7-chloro-1-methyl-N-(naphthalene-1-sulfonyl)-2,3-dihydro-1H-indene-1-carboxamide [Example I-26] | – | – | – | – | ++ (≥50 and <150) | < 3 | +++ (≥350) | < 3 |

Continued, in another order:

| EC50 (F508delCFTR [1]; CSE-HRP assay) [µM] | Emax (F508delCFTR [1]) [%] | EC50 (F508delCFTR [2]; [3]) [µM] | Maximum % activity (with co-corrector) (F508delCFTR [2]; [4]) | Molecule | Maximum % activity (without co-corrector) (F508delCFTR [1]) | EC50 (F508delCFTR [1]) [µM] | Maximum % activity (with co-corrector) (F508delCFTR [2]; [5]) | EC50 (F508delCFTR [2]; with 2 μM co-corrector) [µM] |
| --- | --- | --- | --- | --- | --- | --- | --- | --- |
| 3 to 10 | 50 to 150 | 3 to 10 | +++ (≥350) | COc1ccc(-c2cncnc2)c2c1C(C(=O)NS(=O)(=O)c1cccc3ncccc13)CC2 (stereo not drawn) [III-168] | – | – | – | – |
| 3 to 10 | ≥ 150 | < 3 | +++ (≥350) | COc1ccc(C2=CCOCC2)c2c1C(C(=O)NS(=O)(=O)c1cccc3ncccc13)CC2 (stereo not drawn) [III-169] | – | – | – | – |
| 3 to 10 | 50 to 150 | 3 to 10 | +++ (≥350) | COc1ccc(-c2ccc(C(F)(F)F)nc2)c2c1C(C(=O)NS(=O)(=O)c1cccc3ccccc13)CCC2 (stereo not drawn) [III-171] | – | – | – | – |
| ≥ 10 | < 50 | ≥ 10 | + (<150) | Cc1ccccc1S(=O)(=O)NC(=O)C1Cc2ccccc21 (stereo not drawn) [III-176] | – | – | – | – |
| ≥ 10 | < 50 | 3 to 10 | ++ (≥150 and <350) | COc1ccc2c(c1OC)CC2C(=O)NS(=O)(=O)c1cccc2ccccc12 (stereo not drawn) [III-177] | – | – | – | – |
| 3 to 10 | < 50 | 3 to 10 | ++ (≥150 and <350) | COc1ccc2c(n1)CCC2C(=O)NS(=O)(=O)c1cccc2ccccc12 (stereo not drawn) [III-178] | – | – | – | – |
| ≥ 10 | < 50 | ≥ 10 | + (<150) | CCC1(C(=O)NS(=O)(=O)c2cccc(Cl)c2C(=O)O)CCc2c(Cl)cccc21 (stereo not drawn) [III-179] | – | – | – | – |
| ≥ 10 | < 50 | 3 to 10 | ++ (≥150 and <350) | COc1ccc(Br)c2c1C(C(=O)NS(=O)(=O)c1cccc3c(C(=O)O)cccc13)CC2 (stereo not drawn) [III-181] | – | – | – | – |
| – | 50 to 150 | – | ++ (≥150 and <350) | COC(=O)c1ccc(OC)c2c1CCC2C(=O)NS(=O)(=O)c1cccc2ccccc12 (stereo not drawn) [III-184] | – | – | – | – |
